# Biological target: T1, glucosylceramide synthase (Homo sapiens, UniProt Q16739)
# T1 construct: made in house; host or cells: Expi293F cells (transient expression, pcDNA3.3-TOPO vector); microsome fraction used as enzyme source
# T1 sequence (Q16739 1-394): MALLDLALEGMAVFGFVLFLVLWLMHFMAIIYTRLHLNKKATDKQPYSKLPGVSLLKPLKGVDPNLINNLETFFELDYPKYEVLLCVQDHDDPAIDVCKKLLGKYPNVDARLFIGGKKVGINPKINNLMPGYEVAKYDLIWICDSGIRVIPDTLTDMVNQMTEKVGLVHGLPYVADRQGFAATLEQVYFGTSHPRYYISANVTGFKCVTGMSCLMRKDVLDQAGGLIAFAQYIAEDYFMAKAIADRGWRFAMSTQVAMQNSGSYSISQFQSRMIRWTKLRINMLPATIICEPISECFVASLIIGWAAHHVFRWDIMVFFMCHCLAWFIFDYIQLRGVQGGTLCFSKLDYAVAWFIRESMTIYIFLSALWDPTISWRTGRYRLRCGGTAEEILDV
# Experiment: Glucosylceramide synthase (GCS) enzyme assay, microsome fraction, C8 glucosylceramide quantified by Rapidfire MS/MS
# Format: biochemical
# Conditions: test compound 10 μM; 1.7 μM UDP-glucose, 3 μM C8 ceramide; room temperature 60 min; read-out: GCS enzyme inhibitory rate at 10 μM (%) (% of control)
# Method in brief: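 Test compound, 10 μM final, was run against human GCS from transfected Expi293F microsome fractions, using substrate solution of 6 μM C8 ceramide (in DOPC liposomes) plus 3.4 μM UDP-glucose, pH 7.5 Tris buffer, 60 min, room temperature. Product C8 glucosylceramide measured by Rapidfire MS/MS against an internal standard, % inhibition referenced to no-enzyme and DMSO wells.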
row,inhibition at 10 µM,Compound
1,100%,"Cc1cc2c(c(-c3ccccc3OCC(F)F)n1)CN(c1ccc(OCC(C)(C)O)cc1)C2=O [Example 365, 4-[2-(2,2-difluoroethoxy)phenyl]-2-[4-(2-hydroxy-2-methylpropoxy)phenyl]-6-methyl-2,3-dihydro-1H-pyrrolo[3,4-c]pyridin-1-one]"
2,99%,"CC(C)(O)COc1ccc(N2Cc3c(ccnc3-c3ccccc3OCC(F)F)C2=O)cc1 [Example 366, 4-[2-(2,2-difluoroethoxy)phenyl]-2-[4-(2-hydroxy-2-methylpropoxy)phenyl]-2,3-dihydro-1H-pyrrolo [3,4-c]pyridin-1-one]"
3,99%,"Cc1cc2c(c(-c3ccccc3OCC(F)(F)F)n1)CN(c1ccc(OCC(C)(C)O)nc1)C2=O [Example 367, 2-[6-(2-hydroxy-2-methylpropoxy)pyridin-3-yl]-6-methyl-4-[2-(2,2,2-trifluoroethoxy)phenyl]-2,3-dihydro-1H-pyrrolo[3,4-c] pyridin-1-one]"
4,100%,"CC(C)(O)c1ccc(N2Cc3c(cn(C(F)F)c(=O)c3-c3ccccc3OCC(F)(F)F)C2=O)cc1 [Example 368, 5-(difluoromethyl)-2-[4-(2-hydroxypropan-2-yl)phenyl]-7-[2-(2,2,2-trifluoroethoxy)phenyl]-1H-pyrrolo[3,4-c]pyridine-3,6(2H,5H)-dione]"
5,100%,"CC(C)(O)COc1ccc(N2Cc3c(cn(C(F)F)c(=O)c3-c3ccccc3OCC(F)(F)F)C2=O)cc1 [Example 369, 5-(difluoromethyl)-2-[4-(2-hydroxy-2-methylpropoxy)phenyl]-7-[2-(2,2,2-trifluoroethoxy)phenyl]-1H-pyrrolo[3,4-c]pyridine-3,6(2H,5H)-dione]"
6,100%,"CC(C)(O)c1ccc(N2Cc3c(cn(C4CC4)c(=O)c3-c3ccccc3OCC(F)(F)F)C2=O)cc1 [Example 371, 5-cyclopropyl-2-[4-(2-hydroxypropan-2-yl)phenyl]-7-[2-(2,2,2-trifluoroethoxy)phenyl]-1H-pyrrolo[3,4-c]pyridine-3,6(2H,5H)-dione]"
7,100%,"CC(C)(O)COc1ccc(N2Cc3c(cn(C4CC4)c(=O)c3-c3ccccc3OCC(F)(F)F)C2=O)cc1 [Example 372, 5-cyclopropyl-2-[4-(2-hydroxy-2-methylpropoxy)phenyl]-7-[2-(2,2,2-trifluoroethoxy)phenyl]-1H-pyrrolo[3,4-c]pyridine-3,6(2H,5H)-dione]"
8,100%,"Cc1cc2c(c(-c3ccccc3OCC(F)(F)F)n1)CN(c1ccc(OCC3(O)CC3)cc1)C2=O [Example 375, 2-{4-[(1-hydroxycyclopropyl)methoxy]phenyl}-6-methyl-4-[2-(2,2,2-trifluoroethoxy)phenyl]-2,3-dihydro-1H-pyrrolo[3,4-c]pyridin-1-one]"
9,100%,"CC(C)n1cc2c(c(-c3ccccc3OCC(F)(F)F)c1=O)CN(c1ccc(C(C)(C)O)cc1)C2=O [Example 376, 2-[4-(2-hydroxypropan-2-yl)phenyl]-5-(propan-2-yl)-7-[2-(2,2,2-trifluoroethoxy)phenyl]-1H-pyrrolo[3,4-c]pyridine-3,6(2H,5H)-dione]"
10,100%,"CC(C)n1cc2c(c(-c3ccccc3OCC(F)(F)F)c1=O)CN(c1ccc(OCC(C)(C)O)cc1)C2=O [Example 377, 2-[4-(2-hydroxy-2-methylpropoxy)phenyl]-5-(propan-2-yl)-7-[2-(2,2,2-trifluoroethoxy)phenyl]-1H-pyrrolo[3,4-c]pyridine-3,6(2H,5H)-dione]"
11,101%,"CC(C)(O)c1ccc(N2Cc3c(cc(C4CCOCC4)nc3-c3ccccc3OCC(F)(F)F)C2=O)cc1 [Example 379, 2-[4-(2-hydroxypropan-2-yl)phenyl]-6-(oxan-4-yl)-4-[2-(2,2,2-trifluoroethoxy)phenyl]-2,3-dihydro-1H-pyrrolo[3,4-c]pyridin-1-one]"
12,95%,"O=C1c2cc(C3CCCCC3)nc(-c3ccc(F)cc3OCC(F)(F)F)c2CN1c1ccc(F)cc1 [Example 381, 6-cyclohexyl-2-(4-fluorophenyl)-4-[4-fluoro-2-(2,2,2-trifluoroethoxy)phenyl]-2,3-dihydro-1H-pyrrolo [3,4-c]pyridin-1-one]"
